Results: a flash point compilation (Sun et al. 2020)
Counter-ions that a name gives are not always drawn.

SMILES | flash point
CCCCCl [1-chlorobutane] | -7.00 °C
CCCC(C)C [2-methylpentane] | -29.00 °C
CCCOC=O [propyl formate] | -3.00 °C
CCCCCCCCCl [1-chlorooctane] | 70.00 °C
CC#N [acetonitrile] | 6.00 °C
CCCCCCC=O [heptanal] | 35.00 °C
CCCCCCCC(=O)Cl [octanoyl chloride] | 81.00 °C
CCCCCCCl [1-chlorohexane] | 35.00 °C
CCCCCC=O [hexanal] | 32.00 °C
CCC(Cl)Cl [1,1-dichloropropane] | 21.00 °C

Remark: another data set of the same source

SMILES | flash point
C=CCCCCCCCCCCCC [1-tetradecene] | 97 °C
COCC(C)O (stereo not given) [1-methoxy-2-propanol] | 31 °C
COCCCN [3-methoxypropylamine] | 23 °C
ClCCCCCl [1,4-dichlorobutane] | 43 °C
C1=CCCC1 [cyclopentene] | -30 °C
ClCCCCl [1,3-dichloropropane] | 21 °C
ClCCCCCCl [1,5-dichloropentane] | 63 °C

Remark: another data set of the same source

SMILES | flash point
C=CCCCCCCCCCCCC [1-tetradecene] | 110 °C
CCCCCl [1-chlorobutane] | -12 °C
COCC(C)O (stereo not given) [1-methoxy-2-propanol] | 38 °C
CCCC(C)C [2-methylpentane] | -32 °C
CCCOC=O [propyl formate] | -0 °C
COCCCN [3-methoxypropylamine] | 32 °C
ClCCCCCl [1,4-dichlorobutane] | 40 °C
C1=CCCC1 [cyclopentene] | -0 °C
ClCCCCl [1,3-dichloropropane] | 32 °C
CCCCCCCCCl [1-chlorooctane] | 63 °C
ClCCCCCCl [1,5-dichloropentane] | 26 °C
Cc1ccc(Cl)cc1 [4-chlorotoluene] | 49 °C
OC1CCCC1 [cyclopentanol] | 51 °C
CC(=O)CCC(C)C [5-methyl-2-hexanone] | 36 °C
CCCCCCCCCC [n-decane] | 51 °C
CCCCCCCCl [1-chloroheptane] | 41 °C
Clc1ccccc1 [chlorobenzene] | 27 °C
CC#N [acetonitrile] | 13 °C
Cc1cc(C)nc(C)c1 [2,4,6-trimethylpyridine] | 57 °C
N#CCCCCC#N [1,4-dicyanobutane] | 159 °C
NC1CCC1 [cyclobutylamine] | -4 °C
CC(C)OCCO [2-isopropoxyethanol] | 43 °C

SMILES | flash point
CC(C)C=O [isobutyraldehyde] | -24 °C
CC1CCC(C)CC1 (stereo not given) [1,4-dimethylcyclohexane] | 10 °C
CC(C)CCCO [4-methyl-1-pentanol] | 51 °C
CCc1ccc(Cl)cc1 [1-chloro-4-ethylbenzene] | 64 °C
CCC=O [propionaldehyde] | -40 °C
CCCCCCC=O [heptanal] | 41 °C
O=C(OCc1ccccc1)c1ccccc1 [benzyl benzoate] | 147 °C
CS(C)=O [dimethylsulfoxide] | 88 °C
CCCCCCC#N [heptanenitrile] | 58 °C
CC(C)CC(=O)CC(C)C [diisobutyl ketone] | 49 °C
CC(C)C1CCCCC1 [isopropylcyclohexane] | 35 °C
OCc1ccccc1 [benzyl alcohol] | 93 °C
Clc1cccc(Cl)c1 [m-dichlorobenzene] | 63 °C
O=C1CCCCCC1 [cycloheptanone] | 55 °C
CC(N)CN (stereo not given) [1,2-propanediamine] | 33 °C
CCCCCCCC(=O)Cl [octanoyl chloride] | 82 °C
CCC(C)OC (stereo not given) [methyl sec-butyl ether] | -30 °C
CC(=O)OCCC(C)C [isopentyl acetate] | 25 °C
CN1CCCC1=O [1-methyl-2-pyrrolidinone] | 86 °C
CC(=O)OC(C)C [isopropyl acetate] | 2 °C
CC(=O)C1CC1 [1-cyclopropylethanone] | 13 °C
C#CCCCCl [5-chloro-1-pentyne] | 15 °C

SMILES | flash point
CCOC(=O)/C=C/C(=O)OCC [diethyl fumarate] | 91 °C
C=COCC [ethyl vinyl ether] | -45 °C
CC(C)(C)c1ccccc1 [t-butylbenzene] | 60 °C
CCCCC#N [valeronitrile] | 40 °C
CCC(C)(C)OC [methyl tert-pentyl ether] | -11 °C
CCN(C)CC [N,N-diethylmethylamine] | -23 °C
CC=C(C)CC [3-methyl-2-pentene] | -6 °C
COC(=O)c1ccccc1 [methyl benzoate] | 83 °C
CCCCCCCCS [1-octanethiol] | 69 °C
CCC(Cl)CCl (stereo not given) [1,2-dichlorobutane] | 26 °C
CCC(C)C(CC)CC (stereo not given) [3-methyl-4-ethylhexane] | 24 °C
CC(=O)C(C)C [3-methyl-2-butanone] | 6 °C
CCCCCCCl [1-chlorohexane] | 26 °C
CCCCCc1ccccc1 [pentylbenzene] | 65 °C
C1=CC2C=CC1C2 [2,5-norbornadiene] | -11 °C
CCCC(=O)O [n-butyric acid] | 69 °C
CCC(C)O (stereo not given) [sec-butanol] | 26 °C
CCOC(=O)C(C)C [ethyl isobutyrate] | 13 °C
C=CCCCCCCCCO [9-decen-1-ol] | 119 °C
CCCCCC=O [hexanal] | 25 °C
CCCCCBr [1-bromopentane] | 31 °C
Cc1ccc2ccccc2c1 [2-methylnaphthalene] | 97 °C

SMILES | flash point
COC(OC)OC [trimethoxymethane] | 15 °C
CC1=CC(=O)CC(C)(C)C1 [isophorone] | 84 °C
CC(C)(C)C1CCCCC1 [t-butylcyclohexane] | 42 °C
C=C(C)C#N [methacrylonitrile] | 1 °C
CC(C)(C)Cl [2-chloro-2-methylpropane] | -27 °C
CCCCC(C)CC (stereo not given) [3-methylheptane] | 7 °C
SCCS [1,2-ethanedithiol] | 50 °C
CC(C)(N)CO [2-amino-2-methyl-1-propanol] | 67 °C
CCC(Cl)Cl [1,1-dichloropropane] | 7 °C
CC1CCCO1 (stereo not given) [2-methyltetrahydrofuran] | -11 °C
OC1CCCCCC1 [cycloheptanol] | 71 °C
SCCCCCS [1,5-pentanedithiol] | 95 °C
O=CC=Cc1ccccc1 [cinnamaldehyde] | 71 °C
CCCCCOCCCCC [dipentylether] | 57 °C
COC(=O)c1ccccc1O [methyl salicylate] | 96 °C
CC(C)C(=O)O [isobutyric acid] | 55 °C
CC(C)COC=O [isobutyl formate] | 10 °C
C=CC(=O)OCC(CC)CCCC (stereo not given) [2-ethylhexyl acrylate] | 86 °C
CCCCCCI [1-iodohexane] | 67 °C
CC(C)(Cl)Cl [2,2-dichloropropane] | -5 °C
c1ccc2occc2c1 [benzofuran] | 56 °C
c1ccc(Cc2ccccc2)cc1 [diphenylmethane] | 127 °C
